Results as given in patent US20230043948A1, “METHOD AND KIT FOR CELL GROWTH” (PRECISION CANCER TECHNOLOGIES INC ., priority 2019, published 2023).
Entries after “also recorded” stand apart in the source; their conditions may differ. Read-outs that look alike come from different tables or passages of the source.

Legend:
[1] = system: lung cancer cells overexpressing the c-Met receptor (PDX, LXFA-1647); assay: ex vivo drug testing of lung cancer cells overexpressing c-Met in a 3D hydrogel array / Matrigel; format: cell-based, human
From the text: A PEG was used as a hydrogel precursor molecule for making a non self-degradable hydrogel. As a crosslinking agent, peptides containing at least two, preferably two cysteine moieties were used which varied in their amino acid sequence, in particular with respect to the presence or absence of a RGD adhesion motif and with respect to the presence or absence of a MMP degradation sequence. A further variation that was made to some hydrogels was the attachment of a bioactive ligand comprising a RGD adhesion motif or/and a ligand selected from the group consisting of natural laminins, recombinant laminin isoforms, and biofunctional fragments thereof. Examples of suitable recombinant laminin isoforms are laminin-111, laminin-211, laminin-332, laminin-411, laminin-511, or laminin-521. An array of hydrogels varying in the above preselected features was established, by the method described above.
The mechanical properties of the hydrogels were also varied (soft (50-1000 Pa), medium (1000-2000 Pa) or hard (2000-3000 Pa) gels).
For comparison, tests were also conducted in the undefined natural-derived matrix Matrigel®.
The respective drug was added to the culture media after 1 to 8 days of culture (1 to 8 days post cell encapsulation). The drug response was measured after 5 to 10 days post-drug addition. As a preferred culture medium, a medium was preselected that is characterized by the presence of FBS (serum) or Wnt agonists such as R-spondin. According to this example, a culture medium was used that was adapted from the medium described in Sachs et al. (The EMBO Journal e 100300|2019). The preferred culture medium comprised AdDMEM/F12 medium supplemented with glutamine, Noggin, EGF, fibroblast growth factor 7 and 10 [FGF7 and FGF10], HGF, R-spondin-conditioned medium, Primocin, penicillin/streptomycin, N-acetyl-L-cysteine, Nicotinamide, A83-01, SB202190 (p38-inhibitor), Y-27632 (rock inhibitor), B27 supplement and HEPES. Target expression (c-Met and Phospho c-Met) was detected by Western-blot in corresponding growth conditions.

[2] = system: non-small cell lung cancer (NSCLC) model LXFA-1647; assay: in vivo treatment of patient-derived xenograft (PDX) NSCLC model; design: species or system human; details: PDX NSCLC model LXFA-1647
[3] = system: lung cancer cells overexpressing the EGFR receptor (PDX); assay: ex vivo drug testing of lung cancer cells overexpressing EGFR in 3D hydrogel; format: cell-based, human
[4] = Matrigel as matrix (comparative example 1), FIG. 1c
[5] = conditions of example 1a: soft non self-degradable PEG hydrogel without any RGD motif (responder conditions), FIG. 1b
[6] = responder conditions of example 1a (hydrogel without any RGD motif), FIG. 1e

SMILES | drug response (effect of treatment) [1, 4] | drug response (effect of treatment) [1, 5] | tumor growth in vivo [2] | drug response (effect of treatment) ([1]; hydrogel with 1 mM bioactive ligand comprising a RGD motif attached (non-responder conditions, example 1b)) | drug response (effect of treatment) [3, 6] | drug response (effect of treatment) [3]
CC(=O)O[C@@]12CO[C@@H]1C[C@H](O)[C@@]1(C)C(=O)[C@H](O)C3=C(C)[C@@H](OC(=O)[C@H](O)[C@@H](NC(=O)OC(C)(C)C)c4ccccc4)C[C@@](O)([C@@H](OC(=O)c4ccccc4)[C@H]21)C3(C)C [Docetaxel] | an effect | clearly effective |  |  |  | 
OCCn1cc(-c2cnc3nnn(Cc4ccc5ncccc5c4)c3n2)cn1 [PF-04217903] | did not respond; also recorded: No effect | clearly effective | induces tumor growth regression | resistant | no effect | 
C#Cc1cccc(Nc2ncnc3cc(OCCOC)c(OCCOC)cc23)c1 [Erlotinib] |  |  |  |  |  | clear effect
CC(=O)O[C@H]1C(=O)[C@@]2(C)[C@H]([C@H](OC(=O)c3ccccc3)[C@]3(O)C[C@H](OC(=O)[C@H](O)[C@@H](NC(=O)c4ccccc4)c4ccccc4)C(C)=C1C3(C)C)[C@]1(OC(C)=O)CO[C@@H]1C[C@@H]2O [Paclitaxel] |  |  |  |  | clear effect | 
